From patent US20230271933A1, “HETEROCYCLIC IMMUNOMODULATOR” (Beijing Innocare Pharma Tech Co., Ltd., priority 2020, published 2023) come the findings set out here.

Data set [1] deals with hERG potassium ion channel (Homo sapiens, UniProt Q12809). Briefly: Blockade of the hERG potassium ion channel (whole cell patch clamp). As to conditions: HEK293 cells stably overexpressing hERG, pH 7.4, tail current, read-out: The percentage of the inhibition to the hERG current at the solubility of 3 μM (n = 2). The data set is classed as cell-based. How it is done:
The effect of the compound of the present invention on possible arrhythmias was assessed by determining the blockade of the hERG potassium ion channel.
The experiment method was summarized as follows: • Extracellular fluid: 140 mM NaCl, 3.5 mM KCl, 1 mM MgCl2, 2 mM CaCl2, 10 mM D-glucose, 10 mM HEPES, 1.25 mM NaH2PO4, pH=7.4. • Electrode internal solution: 20 mM KCl, 115 mM K-aspartate, 1 mM MgCl2, 5 mM EGTA, 10 mM HEPES, 2 mM Na2-ATP, pH=7.2. • Compound solution: the compound to be tested was dissolved in DMSO and prepared into a stock solution having a concentration of 10 mM, then diluted into the concentration of 3 mM with DMSO, and then diluted into a solution having a concentration of 3 μM with the extracellular solution for subsequent use. • Cell culture: the HEK293 cell line with the stable hERG potassium channel overexpression (Creacell, Cat. No. A-0320) was cultured in a DMEM medium (Gibco, Cat. No. 11995-065) containing […] (Gibco, Cat. No. 1428478) and 0.8 mg/mL G418 (Amresco, Cat. No. E859-5G) at the culture temperature of 37° C. under the carbon dioxide concentration of […]. The spent medium was removed and the cells were washed once with PBS (Gibco, Cat. No. 1009-141). Then 1 mL TrypLE™ Express solution (Gibco, Cat. No. 12604021) was added and the cells were incubated at 37° C. […]. When the cells were detached from the bottom of the dish, 5 mL of complete medium preheated at 37° C. was added. The cell suspension was transferred to a sterile centrifuge tube and centrifuged at 1000 rpm for 5 minutes before cell collection. Cells were inoculated in 6 cm cell culture dishes at the cell inoculation volume of 2.5*10^5 per dish (final volume: 5 mL). Before the patch clamp detection experiment, 3*10^3 cells were plated on the cover slips, cultured in 24-well plates (final volume: 500 μL), and detected 18 hours later. • Voltage stimulation protocol by recording the whole-cell hERG potassium current with the whole cell patch clamp: after forming a whole-cell seal, the cell membrane voltage was clamped at −80 mV. The clamping voltage was depolarized from −80 mV to −50 mV and maintained for 0.5 seconds (as leakage current detection), then stepped to 30 mV and maintained for 2.5 seconds, then quickly returned to −50 mV and maintained for 4 seconds to excite the hERG channel tail current (Peak tail current), the hERG potassium current was recorded every other 10 seconds. Experiment data were collected with EPC-10 amplifier (HEKA) and stored in PatchMaster (HEKA v2x73) software. • Determination: A capillary glass tube (Sutter Instruments) was drawn into a recording electrode with a microelectrode drawing instrument (Sutter Instruments). The cell-loaded cover slip was removed from the 24-well plate placed in the incubator and then placed under an inverted microscope. […] In the whole-cell recording mode, the slow capacitance compensation was performed and the membrane capacitance and the series resistance were recorded, during which the leakage compensation was not applied. After the hERG tail current recorded with the whole cell was stabilized for 3-5 minutes, 8 mL of the compound-free extracellular fluid (blank control) and 8 mL of 3 μM solution of the compound to be tested were sequentially flowed through the recording bath with the gravity perfusion to act on the cells for 5 minutes (or to the current stabilization). The current detected for each cell in the compound-free extracellular fluid was served as its own control. […]
For orientation: hERG is a cardiac potassium channel; its block is linked to QT prolongation.

Data set [2] relates to NCI-H929 human myeloma cells. As to the kind of experiment: Inhibition of the proliferation of NCI-H929 cells (luminescent cell viability, CTG). The data set is classed as cell-based. To be noted: Homo sapiens, NCI-H929, 144 h, 6 days, CellTiter-Glo. How it is done:
The effect of the compounds of the present invention on the proliferation of NCI-H929 human myeloma cells was evaluated by using a luminescent cell viability test experiment.
The compound was dissolved and diluted to 5 mM in DMSO, and then serially diluted 4-fold in DMSO to a minimum concentration of 0.31 μM. Each concentration was further diluted 50-fold with RPMI 1640 medium (Thermo Fisher, Cat. No. 72400-047). If the IC50 value of the compound was relatively low, the initial concentration of the compound could be lowered.
NCI-H929 cells (Nanjing Cobioer, Cat. No. CBP60243) were cultured in RPMI 1640 complete medium [containing 10% FBS (GIBCO, Cat. No. 10099-141) and 100 units/mL penicillin-streptomycin (Thermo Fisher, Cat. No. 15140122)]. Cells (15000 cells/mL) were plated in 90 μL of the complete medium in a 96-well plate and cultured overnight, and then 10 μL of the compound solution was added into each well. The cells were cultured in an incubator at 37° C. and 5% CO2 for 6 days. Then the cell culture plate was taken out and balanced to room temperature according to the instruction of the CellTilter-Glo (CTG) kit (Promega, Cat. No. G7572). 50 μL CTG reagent was added for complete lysis, the plate was placed at room temperature for 10 minutes, and the luminescence signal was read with a microplate reader (EnVision, Perkin Elmer). The group containing 0.2% DMSO medium was used as 0% inhibition. The XLfit software was used to plot the compound inhibition curve and calculate the inhibitory IC50 value.
Background: In ATP-based viability assays light output follows the ATP content of the culture.

Another data set deals with TNFα. As to the kind of experiment: Inhibition of TNFα secretion in LPS-stimulated hPBMC (ELISA). To be noted: Homo sapiens, overnight, read-out: IC50 (nM) for the inhibition of the TNFa secretion. The data set is classed as cell-based. How it is done: (§1) The immunomodulatory function of the compound of the present invention was evaluated by detecting its effect on the secretion amount of TNFα and IL-2 in cells from the human peripheral blood mononuclear cells (hPBMC) by the enzyme linked immunosorbent assay (ELISA) method.
(§2) The peripheral blood of healthy volunteers was collected by using EDTA anticoagulant tubes, and diluted with phosphate buffered saline (PBS) containing 2% fetal bovine serum (Gibco, Cat. No. 10099-141) in an equal volume ratio. 30 mL of the resulting diluted sample was transferred into a Sepmate-50 centrifuge tube (Stemcell, Cat. No. 86450) to which 15 mL of a density-gradient centrifugation liquid (Sigma, Cat. No. 10771) had been added in advance, and centrifuged at room temperature at 1200×g for 10 minutes. The liquid containing PBMC in the upper layer was transferred to a new 50-mL centrifuge tube, and centrifuged at room temperature at 300×g for 8 minutes. The supernatant was discarded, and the resulting PBMC was resuspended to 5×10^6/mL by using RPMI 1640 medium (Gibco, Cat. No. 72400-047). 80 μL of the resulting suspension was added to each well in a 96-well plate.
(§3) Each concentration was further diluted 50-fold with RPMI 1640 medium. 10 μL of each compound solution was added into the cells in the above 96-well plate. The 96-well plate was placed in an incubator, and the cells were cultured at 37° C. and 5% CO2 for 1 hour. 10 μL of LPS (Sigma, Cat. No. L-2880) with a concentration of 100 ng/mL was added, and the cells were continuously cultured in the incubator at 37° C. and 5% CO2 overnight. Supernatants were collected for the detection of TNFα.
(§4) TNFα and IL-2 were detected respectively according to each instruction of the ELISA kits (R&D, Cat. No. DY210 and DY202, respectively) to obtain the OD450 values for each well. The group containing 0.2% DMSO medium was used as 0% inhibition or stimulation. The XLfit software was used to plot the compound inhibition or stimulation curve and calculate the corresponding IC50 or EC50.
(In general: An ELISA detects its analyte on a solid surface through an enzyme-linked reagent.)

For a further data set, the system named is IL-2. As to the kind of experiment: Stimulation of IL-2 secretion in anti-CD3-stimulated hPBMC (ELISA). The data set is classed as cell-based, human. As to conditions: Homo sapiens, anti-CD3 antibody, 72 hours. The procedure: as §1, §2, §3
The above-mentioned 96-well plate can also be placed in an incubator, and the cells were cultured at 37° C. and 5% CO2 for 1 hour. 10 μL of anti-CD3 antibody (Thermo Fisher, Cat. No. 14-0037-82) with a concentration of 500 ng/mL was added, and the cells were continuously cultured in the incubator at 37° C. and 5% CO2 for 72 hours. Supernatants were collected for the detection of IL-2.
as §4

Data set [3] is described as follows: In vivo pharmacokinetic experiment in rats. As to conditions: male Sprague-Dawley rats, n = 3. How it is done: The compound to be tested was dissolved in 5% DMA+20% Solutol+75% Saline vehicle to prepare a 0.5 mg/mL administration solution.
2 mL/kg of the administration solution was administered through the intravenous injection (IV) at a dose of 1 mg/kg to three fed male Sprague-Dawley rats, respectively. Blood samples were collected at 0.083, 0.25, 0.5, 1, 2, 4, 8 and 24 hours after administration. 10 mL/kg of the administration solution was administered by gavage (PO) at a dose of 5 mg/kg to other three fed male Sprague-Dawley rats, respectively. Blood samples were collected at 0.25, 0.5, 1, 2, 4, 8 and 24 hours after administration.
The concentration of the compound to be tested in plasma was obtained with the LC-MS/MS quantitative analysis with an API-4500 mass spectrometer, and the limit of quantitation (LOQ) for the plasma was 1 ng/mL.

hERG potassium ion channel, sequence (Q12809 whole entry): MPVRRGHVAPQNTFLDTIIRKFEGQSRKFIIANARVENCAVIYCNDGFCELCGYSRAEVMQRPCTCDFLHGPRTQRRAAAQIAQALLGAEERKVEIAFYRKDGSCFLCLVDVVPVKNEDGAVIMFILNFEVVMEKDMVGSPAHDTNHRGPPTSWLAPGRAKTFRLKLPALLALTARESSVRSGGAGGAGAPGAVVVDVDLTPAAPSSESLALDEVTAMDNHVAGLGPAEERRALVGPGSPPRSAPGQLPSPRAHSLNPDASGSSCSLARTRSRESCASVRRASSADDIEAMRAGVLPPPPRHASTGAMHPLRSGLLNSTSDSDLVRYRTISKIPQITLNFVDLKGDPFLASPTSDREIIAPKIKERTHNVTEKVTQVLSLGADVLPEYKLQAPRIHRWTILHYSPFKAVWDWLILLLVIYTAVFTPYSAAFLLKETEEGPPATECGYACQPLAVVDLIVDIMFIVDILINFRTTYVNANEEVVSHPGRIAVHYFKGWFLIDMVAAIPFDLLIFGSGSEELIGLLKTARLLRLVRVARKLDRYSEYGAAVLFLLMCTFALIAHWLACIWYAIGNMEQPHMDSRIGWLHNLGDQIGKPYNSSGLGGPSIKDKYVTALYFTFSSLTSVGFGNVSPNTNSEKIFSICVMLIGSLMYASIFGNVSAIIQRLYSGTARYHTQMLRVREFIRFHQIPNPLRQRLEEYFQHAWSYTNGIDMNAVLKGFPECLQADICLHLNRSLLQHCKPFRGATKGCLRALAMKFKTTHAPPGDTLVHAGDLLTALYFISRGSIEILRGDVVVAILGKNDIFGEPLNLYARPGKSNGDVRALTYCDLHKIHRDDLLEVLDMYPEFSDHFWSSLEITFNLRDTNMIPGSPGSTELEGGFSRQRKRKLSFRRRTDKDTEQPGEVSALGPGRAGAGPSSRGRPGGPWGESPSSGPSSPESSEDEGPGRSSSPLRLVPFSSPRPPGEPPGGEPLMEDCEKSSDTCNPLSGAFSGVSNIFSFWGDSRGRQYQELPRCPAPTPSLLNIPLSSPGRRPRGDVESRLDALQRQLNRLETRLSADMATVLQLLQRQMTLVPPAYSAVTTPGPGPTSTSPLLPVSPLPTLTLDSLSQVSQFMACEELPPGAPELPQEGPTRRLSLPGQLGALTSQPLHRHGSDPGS

For the molecule `N#Cc1ccc(N2CCN(Cc3ccc(COc4cccc5c4CN([C@H]4CCC(=O)NC4=O)C5=O)cc3)CC2)c(F)c1` [CC-92480, reference compound], the inhibition – broadly, the relative decrease from the control value, in per cent – at 5 min, 3 µM in data set [1] was 76%.
For the molecule `C[C@@H](c1ccc(COc2cccc3c2CN([C@H]2CCC(=O)NC2=O)C3=O)cc1)N1CCN(c2ccc(C#N)cc2F)CC1` [Compound 7, 4-(4-((S)-1-(4-(((2-((S)-2,6-dioxopiperidin-3-yl)-1-oxoisoindolin-4-yl)oxy)methyl)phenyl)-ethyl)piperazin-1-yl)-3-fluorobenzonitrile], in data set [2], the IC50 (commonly the concentration that gives 50% inhibition) turned out to be 0.2 nM. Further, the 50% inhibitory concentration (IC50) in the data set with TNFα stood at 2.8 nM. For the same molecule, the EC50 (usually the concentration giving half of the maximal effect) in the data set on IL-2 was determined as 3.2 nM. For the same molecule, the F in data set [3] (PO 5 mpk vs IV 1 mpk) stood at 19%. For the same molecule, the clearance – broadly, a measure of how efficiently the substance is removed, as volume per time – in data set [3] (rat, plasma, 1 mg/kg, IV 1 mpk) was determined as 13 mL/min/kg. Also, in data set [3] (rat, plasma, 1 mg/kg, IV 1 mpk, read-out: VSS), the Vd worked out at 2.4 L/kg. Besides, in data set [3] (rat, plasma, 5 mg/kg, PO 5 mpk), the AUC(0-t) (commonly the area under the concentration-time curve up to a stated or last time point) amounted to 1200 ng·h/mL and the Cmax – broadly, the maximum level reached in the sampled fluid or tissue – turned out to be 121 ng/mL.
